# According to patent US9321774B2, “Pyrrolobenzodiazepines” (MEDIMMUNE LIMITED, priority 2012, dated 2016):
# Like-named read-outs stand apart in the source and are kept apart here.
# What was measured:
# Assay in all cases: CLSI broth microplate assay, MIC
# Format in all cases: cell-based
# [1] = tested on: MRSA strain EMRSA-16; settings: Staphylococcus aureus, read-out: Minimum inhibitory concentration (MIC mg/L) EMRSA-16
# [2] = tested on: E. faecium VRE10; settings: Enterococcus faecium
# [3] = tested on: E. faecalis VRE1; settings: Enterococcus faecalis
# [4] = tested on: MRSA strain BB568; settings: Staphylococcus aureus, read-out: Minimum inhibitory concentration (MIC mg/L) BB568
# [5] = tested on: MRSA strain EMRSA-15; settings: Staphylococcus aureus, read-out: Minimum inhibitory concentration (MIC mg/L) EMRSA-15
# [6] = tested on: community-associated MRSA isolate USA300; settings: Staphylococcus aureus, read-out: Minimum inhibitory concentration (MIC mg/L) USA300
# [7] = tested on: S. aureus VISA strain Mu50; settings: Staphylococcus aureus, read-out: Minimum inhibitory concentration (MIC mg/L) Mu50
# [8] = VRE10, read-out: Minimum inhibitory concentration (MIC mg/L) VRE10
# [9] = VRE1, read-out: Minimum inhibitory concentration (MIC mg/L) VRE1
# [10] = EMRSA-16, Mueller-Hinton broth, 37° C.
# [11] = VRE10, Mueller-Hinton broth, 37° C., read-out: Minimum inhibitory concentration (MIC mg/L) VRE10
# [12] = VRE1, Mueller-Hinton broth, 37° C., read-out: Minimum inhibitory concentration (MIC mg/L) VRE1
# [13] = BB568, Mueller-Hinton broth, 37° C.
# [14] = EMRSA-15, Mueller-Hinton broth, 37° C.
# [15] = Mu50, Mueller-Hinton broth, 37° C.
Compound,MIC [1] [mg/L],"MIC [2, 8] [mg/L]","MIC [3, 9] [mg/L]",MIC [4] [mg/L],MIC [5] [mg/L],MIC [6] [mg/L],MIC [7] [mg/L],"MIC [1, 10] [mg/L]","MIC [2, 11] [mg/L]","MIC [3, 12] [mg/L]","MIC [4, 13] [mg/L]","MIC [5, 14] [mg/L]","MIC [7, 15] [mg/L]"
"COC(=O)c1cc2cc(NC(=O)c3nc(NC(=O)CCCOc4cc5c(cc4OC)C(=O)N4CCC[C@H]4C=N5)cn3C)ccc2s1 [Compound 35, (S)-methyl 5-(4-(4-((7-methoxy-5-oxo-2,3,5,11a-tetrahydro-1H-benzo[e]pyrrolo[1,2-a][1,4]diazepin-8-yl)oxy)butanamido)-1-methyl-1H-imidazole-2-carboxamido)benzo[b]thiophene-2-carboxylate]",0.06,0.06,0.06,0.06,0.06,0.06,,,,,,,
"COC(=O)c1cc(-c2ccc(NC(=O)c3cc(-c4ccc(NC(=O)CCCOc5cc6c(cc5OC)C(=O)N5CCC[C@H]5C=N6)cc4)co3)cc2)cn1C [Compound 56, (S)-methyl 4-(4-(4-(4-(4-((7-methoxy-5-oxo-2,3,5,11a-tetrahydro-1H-benzo[e]pyrrolo[1,2-a][1,4]diazepin-8-yl)oxy)butanamido)phenyl)furan-2-carboxamido)phenyl)-1-methyl-1H-pyrrole-2-carboxylate]",0.5,0.25,0.5,0.5,0.25,1,0.5,,,,,,
"COC(=O)c1cc(NC(=O)c2cc(-c3ccc(NC(=O)CCCOc4cc5c(cc4OC)C(=O)N4CCC[C@H]4C=N5)cc3)co2)cn1C [Compound 54, (S)-methyl 4-(4-(4-(4-((7-methoxy-5-oxo-2,3,5,11a-tetrahydro-1H-benzo[e]pyrrolo[1,2-a][1,4]diazepin-8-yl)oxy)butanamido)phenyl)furan-2-carboxamido)-1-methyl-1H-pyrrole-2-carboxylate]",,,,,,0.06,,0.06,< 0.03,0.06,0.125,< 0.03,0.03
"COc1cc2c(cc1OCCCC(=O)Nc1ccc(-c3cc(C(=O)NCc4ccc(OCCN5CCOCC5)cc4)n(C)c3)cc1)N=C[C@@H]1CCCN1C2=O [Compound 52, (S)-4-(4-(4-((7-methoxy-5-oxo-2,3,5,11a-tetrahydro-1H-benzo[e]pyrrolo[1,2-a][1,4]diazepin-8-yl)oxy)butanamido)phenyl)-1-methyl-N-(4-(2-morpholinoethoxyl)benzyl)-1H-pyrrole-2-carboxamide]",1 to 2,1,2,4,4,4,2,,,,,,
"COc1cc2c(cc1OCCCC(=O)Nc1cn(C)c(C(=O)Nc3ccc(N4CCOCC4)nc3)n1)N=C[C@@H]1CCCN1C2=O [Compound 40, (S)-4-(4-((7-methoxy-5-oxo-2,3,5,11a-tetrahydro-1H-benzo[e]pyrrolo[1,2-a][1,4]diazepin-8-yl)oxy)butanamido)-1-methyl-N-(6-morpholinopyridin-3-yl)-1H-imidazole-2-carboxamide]",0.5,0.125,0.25,0.5,0.125,0.125,,,,,,,
"COc1cc2c(cc1OCCCC(=O)Nc1cc(C(=O)Nc3ccc4occc4c3)n(C)c1)N=C[C@@H]1CCCN1C2=O [Compound 26, (S)—N-(benzofuran-5-yl)-4-(4-((7-methoxy-5-oxo-2,3,5,11a-tetrahydro-1H-benzo[e]pyrrolo[1,2-a][1,4]diazepin-8-yl)oxy)butanamido)-1-methyl-1H-pyrrole-2-carboxamide]",0.125,,0.06 to 0.125,0.125,,0.125,,,0.06,,,0.06,0.06
COC(=O)c1cc(NC(=O)c2cc(NC(=O)c3cc(NC(=O)c4cc(NC(=O)c5cc(-c6ccc(NC(=O)CCCOc7cc8c(cc7OC)C(=O)N7CCC[C@H]7C=N8)cc6)cn5C)cn4C)cn3C)cn2C)cn1C [Compound 59],16,4,32,16,2,16 to 32,4,,,,,,
"COc1cc2c(cc1OCCCC(=O)Nc1cc(C(=O)Nc3ccc4sccc4c3)n(C)c1)N=C[C@@H]1CCCN1C2=O [Compound 27, (S)—N-(benzo[b]thiophen-5-yl)-4-(4-((7-methoxy-5-oxo-2,3,5,11a-tetrahydro-1H-benzo[e]pyrrolo[1,2-a][1,4]diazepin-8-yl)oxy)butanamido)-1-methyl-1H-pyrrole-2-carboxamide]",,,,,,0.06 to 0.125,,0.125,0.03,0.125,0.125,0.03,< 0.03
"COc1cc2c(cc1OCCCC(=O)Nc1cn(C)c(C(=O)Nc3ccc(OCCN4CCOCC4)cc3)n1)N=C[C@@H]1CCCN1C2=O [Compound 39, (S)-4-(4-((7-methoxy-5-oxo-2,3,5,11a-tetrahydro-1H-benzo[e]pyrrolo[1,2-a][1,4]diazepin-8-yl)oxy)butanamido)-1-methyl-N-(4-(2-morpholinoethoxyl)phenyl)-1H-imidazole-2-carboxamide]",,,,,,0.5,,0.25,0.5,0.125,0.25 to 0.5,0.25,0.125
"COc1cc2c(cc1OCCCC(=O)Nc1cn(C)c(C(=O)Nc3ccc(N4CCOCC4)cc3)n1)N=C[C@@H]1CCCN1C2=O [Compound 37, (S)-4-(4-((7-methoxy-5-oxo-2,3,5,11a-tetrahydro-1H-benzo[e]pyrrolo[1,2-a][1,4]diazepin-8-yl)oxy)butanamido)-1-methyl-N-(4-morpholinophenyl)-1H-imidazole-2-carboxamide]",0.5,0.125,0.25,0.5,0.125,0.125,,,,,,,
"COc1cc2c(cc1OCCCC(=O)Nc1cc(C(=O)Nc3ccc(N4CCOCC4)nc3)n(C)c1)N=C[C@@H]1CCCN1C2=O [Compound 31, (S)-4-(4-((7-methoxy-5-oxo-2,3,5,11a-tetrahydro-1H-benzo[e]pyrrolo[1,2-a][1,4]diazepin-8-yl)oxy)butanamido)-1-methyl-N-(6-morpholinopyridin-3-yl)-1H-pyrrole-2-carboxamide]",4,0.5,1,4,0.5,1,,,,,,,
"COC(=O)c1cc2cc(NC(=O)c3cc(NC(=O)CCCOc4cc5c(cc4OC)C(=O)N4CCC[C@H]4C=N5)cn3C)ccc2s1 [Compound 28, (S)-methyl 5-(4-(4-((7-methoxy-5-oxo-2,3,5,11a-tetrahydro-1H-benzo[e]pyrrolo[1,2-a][1,4]diazepin-8-yl)oxy)butanamido)-1-methyl-1H-pyrrole-2-carboxamido)benzo[b]thiophene-2-carboxylate]",0.125,0.06,0.06,0.125,0.06,0.06,,,,,,,
"COc1cc2c(cc1OCCCC(=O)Nc1cc(C(=O)Nc3ccc(N4CCOCC4)cc3)n(C)c1)N=C[C@@H]1CCCN1C2=O [Compound 30, (S)-4-(4-((7-methoxy-5-oxo-2,3,5,11a-tetrahydro-1H-benzo[e]pyrrolo[1,2-a][1,4]diazepin-8-yl)oxy)butanamido)-1-methyl-N-(4-morpholinophenyl)-1H-pyrrole-2-carboxamide]",,,,,,0.5,,2,0.5,1,2,0.5,
